# From PMC11642016 (International Journal of Molecular Sciences, 2024)
# “And” between values parts separate entries of the source, which are not always exact repeats. Identical values can stand only once. Like-named read-outs stand apart in the source and are kept apart here.
# What was measured:
# [1] = tested on: PANC-1 and Fadu cells; assay: CellTiter-Glo viability, statements covering both cancer cell lines; type: cell-based, human; conditions: Homo sapiens; 25 µM; in either of the cancer cell lines; read-out: drop in viability at 25 µM
# Protocol: The effects of the synthesized compounds on cell viability were measured using the CellTiter-Glo® luminescent cell viability assay (Promega, Madison, WI, USA), according to the manufacturer’s instructions. […] After seeding, cells were incubated for a further 48 h before treatment. Cells were treated with the compounds for 72 h. […] After treatment, the luminescence signal was recorded using a microplate reader (BioTek Synergy 2 Multi-Mode Reader, BioTek, Winooski, VT, USA).
# [2] = tested on: PANC-1, Fadu, A2058 and EBC-1 cell lines; parameters: method as in PMID 35455465; conditions: 10 µM; cited from earlier work
# [3] = tested on: PANC-1 and A2058 cells; parameters: method as in PMID 35455465; conditions: 24 h exposure time; cited from earlier work
# [4] = tested on: Fadu cells; assay: CellTiter-Glo luminescent cell viability assay, Fadu; conditions: for viability at 2.8 µM: read-out: Cell Viability (% of Control) 2.8 µM, Fadu; for viability at 2.8 µM / viability at 8.3 µM / viability at 25 µM: mean ± SD, n = 2; for viability at 8.3 µM: read-out: Cell Viability (% of Control) 8.3 µM, Fadu; for viability at 25 µM: read-out: Cell Viability (% of Control) 25 µM, Fadu
# [5] = tested on: PANC-1 cells; assay: CellTiter-Glo luminescent cell viability assay, PANC-1; conditions: for viability at 2.8 µM: read-out: Cell Viability (% of Control) 2.8 µM, PANC-1; for viability at 2.8 µM / viability at 8.3 µM / viability at 25 µM: mean ± SD, n = 2; for viability at 8.3 µM: read-out: Cell Viability (% of Control) 8.3 µM, PANC-1; for viability at 25 µM: read-out: Cell Viability (% of Control) 25 µM, PANC-1
# Protocol: (§1) Primary fibroblast cultures were prepared from human skin biopsies and maintained in DMEM supplemented with 10% FBS, 1% penicillin-streptomycin, and 1% MEM Non-Essential Amino Acids Solution (Thermo Fisher Scientific). […] All cell lines were cultured in a humidified atmosphere at 37 °C and 5% CO2, passaged twice a week, and the experiments were performed on cells between passage 5 and 15. The cell lines were routinely screened for the absence of mycoplasma infection (DAPI staining).
# (§2) The effects of the synthesized compounds on cell viability were measured using the CellTiter-Glo® luminescent cell viability assay (Promega, Madison, WI, USA), according to the manufacturer’s instructions. Briefly, cells were seeded onto a flat-bottomed, white 96-well plate (BRANDplates, cat. no.: 781965)), with the following densities: PANC-1: 750 cells/well, Fadu: 2000 cells/well, primary fibroblasts: 2000 cells/well, HEK293T WT: 1000 cells/well, HEK293T CLPP^−/−: 2500 cells/well. After seeding, cells were incubated for a further 48 h before treatment. Cells were treated with the compounds for 72 h. Three concentrations (25.0 µM; 8.3 µM; 2.8 µM) were applied during the initial cell viability screening, while for the determination of dose–response curves, 1.5-fold serially diluted compound concentrations were applied (range: 26 µM–0.7 µM). After treatment, the luminescence signal was recorded using a microplate reader (BioTek Synergy 2 Multi-Mode Reader, BioTek, Winooski, VT, USA).
# (§3) Data analysis was performed using GraphPad Prism 9.5.0 software (GraphPad Software, San Diego, CA, USA). […] The dose–response curves were generated by four-parameter nonlinear regression, and the IC50 values were determined as the means ± SEM of the best-fit values of 3 independent measurements. The R^2 values were consistently above 0.93, indicating a strong fit of the model to the experimental data (Supplementary S.89). […] Dunnett’s post hoc test was applied to adjust for multiple comparisons, minimizing the likelihood of false positive results. Assumptions for ANOVA, including normality (assessed via QQ plots) and homogeneity of variance (tested using the Brown–Forsythe test), were verified. The following significance levels were applied: * p < 0.05, ** p < 0.01, *** p < 0.001, **** p < 0.0001. […] The tumor selectivity of the compounds was quantitatively characterized by the selectivity index (SI). This parameter was calculated as the ratio of the average best-fit IC50 value for primary fibroblasts and the best-fit IC50 value for the corresponding tumor cells (PANC-1 or Fadu).
# [6] = CellTiter-Glo luminescent cell viability assay, primary fibroblasts; conditions: human, primary skin fibroblasts (non-tumorous), Primer fibroblast Cell viability (% of controll), 72 h, dose–response, individual replicates
# Protocol: as §1, §2, §3
# [7] = tested on: non-tumorous primary fibroblast cells; assay: as above; conditions: for Primer fibroblast Cell viability (% of controll): dose–response, individual replicates
# Protocol: as §1, §2, §3
# [8] = 1 μM, 72 h, dose–response, individual replicates
# [9] = 1.5 μM, 72 h, dose–response, individual replicates
# [10] = 2.3 μM, 72 h, dose–response, individual replicates
# [11] = 3.4 μM, 72 h, dose–response, individual replicates
# [12] = 5.1 μM, 72 h, dose–response, individual replicates
# [13] = 7.7 μM, 72 h, dose–response, individual replicates
# [14] = 17.3 μM, 72 h, dose–response, individual replicates
# [15] = 26 μM, 72 h, dose–response, individual replicates
# [16] = Homo sapiens, FaDu, 72 h, 72 h, first-set screening
# [17] = Homo sapiens, FaDu, 72 h, 72 h, second-set screening
# [18] = Homo sapiens, PANC-1, 72 h, 72 h, first-set screening
# [19] = Homo sapiens, PANC-1, 72 h, 72 h, second-set screening
structure (smiles),measurement,setting,value
"NCC#Cc1ccc(CN2C(=O)C3=C(CCN(Cc4ccc(-n5cc(-c6ccccc6)nn5)cc4)C3)N3CCN=C23)cc1 [I/B, reference compound]",viability at 25 µM,[1],0 to 1%
same,viable cells after treatment in colony formation assays,[2],no viable cells could be observed
same,apoptosis induction,[3],far more efficient in apoptosis induction than ONC201
same,Fadu Cell viability (% of controll),[4]; [8],116 % of controll
same,Fadu Cell viability (% of controll),[4]; [9],108 % of controll and 114 % of controll
same,Fadu Cell viability (% of controll),[4]; [10],112 % of controll
same,Fadu Cell viability (% of controll),[4]; [11],112 % of controll
same,Fadu Cell viability (% of controll),[4]; [12],107 % of controll
same,Fadu Cell viability (% of controll),[4]; [13],100 % of controll and 97 % of controll
same,Fadu Cell viability (% of controll),[4]; [14],0 % of controll
same,Fadu Cell viability (% of controll),[4]; [15],0 % of controll
same,viability at 2.8 µM,[4]; [16],112 ± 7%
same,viability at 2.8 µM,[4]; [17],112 ± 7%
same,viability at 8.3 µM,[4]; [16],103 ± 6%
same,viability at 8.3 µM,[4]; [17],103 ± 6%
same,viability at 25 µM,[4]; [16],0%
same,viability at 25 µM,[4]; [17],0%
same,viability at 0.7 µM,"[4]; Homo sapiens, FaDu, 72 h, read-out: Fadu Cell viability (% of controll), 0.7 μM, 72 h, dose–response, individual replicates",106%
same,viability at 1 µM,"[4]; Homo sapiens, FaDu, 72 h, read-out: Fadu Cell viability (% of controll), 1 μM, 72 h, dose–response, individual replicates",112%
same,viability at 1.5 µM,"[4]; Homo sapiens, FaDu, 72 h, read-out: Fadu Cell viability (% of controll), 1.5 μM, 72 h, dose–response, individual replicates",109%
same,viability at 2.3 µM,"[4]; Homo sapiens, FaDu, 72 h, read-out: Fadu Cell viability (% of controll), 2.3 μM, 72 h, dose–response, individual replicates",110%
same,viability at 3.4 µM,"[4]; Homo sapiens, FaDu, 72 h, read-out: Fadu Cell viability (% of controll), 3.4 μM, 72 h, dose–response, individual replicates",105%
same,viability at 5.1 µM,"[4]; Homo sapiens, FaDu, 72 h, read-out: Fadu Cell viability (% of controll), 5.1 μM, 72 h, dose–response, individual replicates",104%
same,viability at 7.7 µM,"[4]; Homo sapiens, FaDu, 72 h, read-out: Fadu Cell viability (% of controll), 7.7 μM, 72 h, dose–response, individual replicates",93%
same,viability at 17.3 µM,"[4]; Homo sapiens, FaDu, 72 h, read-out: Fadu Cell viability (% of controll), 17.3 μM, 72 h, dose–response, individual replicates",0%
same,viability at 26 µM,"[4]; Homo sapiens, FaDu, 72 h, read-out: Fadu Cell viability (% of controll), 26 μM, 72 h, dose–response, individual replicates",0%
same,IC50,"[4]; Homo sapiens, FaDu, 72 h, read-out: IC50 Value ± SEM Fadu, 72 h treatment, best-fit values, n = 3",10.3 ± 0.17 µM
same,IC50,"[4]; Homo sapiens, FaDu, read-out: Fadu IC50 values, Mean, mean of independently fitted replicate IC50 values (Supplement S.6)",10.4 µM
same,IC50,"[4]; Homo sapiens, FaDu, read-out: Fadu IC50 values, individual replicates n1-n3, IC50 independently determined for each replicate measurement (Supplement S.6)",11 µM
same,Selectivity Index (SI) Fibroblast/Fadu,[4]; ratio of mean best-fit IC50 for primary fibroblasts and best-fit IC50 for Fadu,1.1
same,IC50,"[4]; read-out: Fadu IC50 values, individual replicates n1-n3, IC50 independently determined for each replicate measurement (Supplement S.6)",9.91 µM and 10.2 µM
same,PANC-1 Cell viability (% of controll),"[5]; 0.7 μM, 72 h, dose–response, individual replicates",106 % of controll and 104 % of controll
same,PANC-1 Cell viability (% of controll),[5]; [8],106 % of controll and 107 % of controll
same,PANC-1 Cell viability (% of controll),[5]; [9],111 % of controll
same,PANC-1 Cell viability (% of controll),[5]; [10],113 % of controll
same,PANC-1 Cell viability (% of controll),[5]; [11],113 % of controll
same,PANC-1 Cell viability (% of controll),[5]; [12],109 % of controll and 116 % of controll
same,PANC-1 Cell viability (% of controll),[5]; [13],72 % of controll and 90 % of controll
same,PANC-1 Cell viability (% of controll),[5]; [14],0 % of controll
same,PANC-1 Cell viability (% of controll),[5]; [15],0 % of controll
same,viability at 2.8 µM,[5]; [18],113 ± 4%
same,viability at 2.8 µM,[5]; [19],113 ± 4%
same,viability at 8.3 µM,[5]; [18],61 ± 22%
same,viability at 8.3 µM,[5]; [19],61 ± 22%
same,viability at 25 µM,[5]; [18],0%
same,viability at 25 µM,[5]; [19],0%
same,IC50,"[5]; Homo sapiens, PANC-1, 72 h, read-out: IC50 Value ± SEM PANC-1, 72 h treatment, best-fit values, n = 3",8.2 ± 0.41 µM
same,viability at 0.7 µM,"[5]; Homo sapiens, PANC-1, 72 h, read-out: PANC-1 Cell viability (% of controll), 0.7 μM, 72 h, dose–response, individual replicates",102%
same,viability at 1 µM,"[5]; Homo sapiens, PANC-1, 72 h, read-out: PANC-1 Cell viability (% of controll), 1 μM, 72 h, dose–response, individual replicates",111%
same,viability at 1.5 µM,"[5]; Homo sapiens, PANC-1, 72 h, read-out: PANC-1 Cell viability (% of controll), 1.5 μM, 72 h, dose–response, individual replicates",111%
same,viability at 2.3 µM,"[5]; Homo sapiens, PANC-1, 72 h, read-out: PANC-1 Cell viability (% of controll), 2.3 μM, 72 h, dose–response, individual replicates",112%
same,viability at 3.4 µM,"[5]; Homo sapiens, PANC-1, 72 h, read-out: PANC-1 Cell viability (% of controll), 3.4 μM, 72 h, dose–response, individual replicates",108%
same,viability at 5.1 µM,"[5]; Homo sapiens, PANC-1, 72 h, read-out: PANC-1 Cell viability (% of controll), 5.1 μM, 72 h, dose–response, individual replicates",112%
same,viability at 7.7 µM,"[5]; Homo sapiens, PANC-1, 72 h, read-out: PANC-1 Cell viability (% of controll), 7.7 μM, 72 h, dose–response, individual replicates",72%
same,viability at 17.3 µM,"[5]; Homo sapiens, PANC-1, 72 h, read-out: PANC-1 Cell viability (% of controll), 17.3 μM, 72 h, dose–response, individual replicates",0%
same,viability at 26 µM,"[5]; Homo sapiens, PANC-1, 72 h, read-out: PANC-1 Cell viability (% of controll), 26 μM, 72 h, dose–response, individual replicates",0%
same,IC50,"[5]; Homo sapiens, PANC-1, read-out: PANC-1 IC50 values, Mean, mean of independently fitted replicate IC50 values (Supplement S.6)",8.19 µM
same,IC50,"[5]; Homo sapiens, PANC-1, read-out: PANC-1 IC50 values, individual replicates n1-n3, IC50 independently determined for each replicate measurement (Supplement S.6)",8.43 µM
same,Selectivity Index (SI) Fibroblast/PANC-1,[5]; ratio of mean best-fit IC50 for primary fibroblasts and best-fit IC50 for PANC-1,1.3
same,IC50,"[5]; read-out: PANC-1 IC50 values, individual replicates n1-n3, IC50 independently determined for each replicate measurement (Supplement S.6)",7.99 µM and 8.15 µM
same,"viability at 72 h, 0.7 µM",[6]; 0.7 μM,93%
same,"viability at 72 h, 1 µM",[6]; 1 μM,99%
same,"viability at 72 h, 1.5 µM",[6]; 1.5 μM,105%
same,"viability at 72 h, 2.3 µM",[6]; 2.3 μM,100%
same,"viability at 72 h, 3.4 µM",[6]; 3.4 μM,101%
same,"viability at 72 h, 5.1 µM",[6]; 5.1 μM,104%
same,"viability at 72 h, 7.7 µM",[6]; 7.7 μM,92%
same,"viability at 72 h, 17.3 µM",[6]; 17.3 μM,0%
same,"viability at 72 h, 26 µM",[6]; 26 μM,0%
same,Primer fibroblast Cell viability (% of controll),"[7]; 0.7 μM, 72 h",98 % of controll and 97 % of controll
same,Primer fibroblast Cell viability (% of controll),"[7]; 1.5 μM, 72 h",108 % of controll and 98 % of controll
same,Primer fibroblast Cell viability (% of controll),"[7]; 2.3 μM, 72 h",107 % of controll and 98 % of controll
same,Primer fibroblast Cell viability (% of controll),"[7]; 3.4 μM, 72 h",109 % of controll and 98 % of controll
same,Primer fibroblast Cell viability (% of controll),"[7]; 5.1 μM, 72 h",110 % of controll and 98 % of controll
same,Primer fibroblast Cell viability (% of controll),"[7]; 7.7 μM, 72 h",107 % of controll
same,Primer fibroblast Cell viability (% of controll),"[7]; 17.3 μM, 72 h",0 % of controll
same,Primer fibroblast Cell viability (% of controll),"[7]; 26 μM, 72 h",0 % of controll
same,IC50,"[7]; Homo sapiens, Fibroblast, 72 h, read-out: IC50 Value ± SEM Primary Fibroblast, 72 h treatment, best-fit values, n = 3",11 ± 0.65 µM
same,IC50,"[7]; Homo sapiens, Fibroblast, read-out: Primary fibroblast IC50 values, Mean, mean of independently fitted replicate IC50 values (Supplement S.6), ONC201 value mathematically estimated from inflection point",11.2 µM
same,IC50,"[7]; Homo sapiens, Fibroblast, read-out: Primary fibroblast IC50 values, individual replicates n1-n3, IC50 independently determined for each replicate (Supplement S.6), ONC201 value mathematically estimated from inflection point, viability stayed above 50%",11.1 µM
same,IC50,"[7]; read-out: Primary fibroblast IC50 values, individual replicates n1-n3, IC50 independently determined for each replicate (Supplement S.6), ONC201 value mathematically estimated from inflection point, viability stayed above 50%",11.1 µM and 11.4 µM
